Measured values as given in paper PMC3753754, “Andrographis paniculata Extract and Andrographolide Modulate the Hepatic Drug Metabolism System and Plasma Tolbutamide Concentrations in Rats” (Evidence-based Complementary and Alternative Medicine : eCAM, 2013).

Tested on: CYP1A1, CYP1A2, CYP2C6, CYP2C11, and CYP3A2
Assay: RT-PCR of hepatic CYP isozyme mRNA in treated rats
Type: in vivo
Conditions: rat liver, APE or andrographolide for 5 days
Description: Total RNA in liver samples was extracted by using the Trizol reagent (1 : 20, w/v). […] The sequences for the PCR primers were as follows: for CYP1A1 (forward: 5′-[…]-3′; reverse: 5′-[…]-3′), CYP1A2 (forward: 5′-[…]-3′; reverse: 5′-[…]-3′), CYP2C6 (forward: 5′-[…]-3′; reverse: 5′-[…]-3′), CYP2C11 (forward: 5′-[…]-3′; reverse: 5′-[…]-3′), CYP2D1 (forward: 5′-[…]-3′; reverse: 5′-[…]-3′), CYP2E1 (forward: 5′-[…]-3′; reverse: 5′-[…]-3′), CYP3A1 (forward: 5′-[…]-3′; reverse: 5′-[…]-3′), CYP3A2 (forward: 5′-[…]-3′; reverse: 5′-[…]-3′), and P-glycoprotein (forward: 5′-[…]-3′; reverse: 5′-[…]-3′). The PCR for CYP1A1 was performed as follows: 5 min at 95°C and then 35 cycles of 30 s at 94°C, 30 s at 54°C, and 60 s at 72°C. For CYP1A2 and CYP3A2 amplification, the PCR cycle number was 30 times through a 30 s denaturing step at 94°C, a 30 s annealing step at 55°C, and a 30 s elongation step at 72°C. For CYP2D1 and CYP3A1, the PCR cycle number was 30 times through a 60 s denaturing step at 94°C, a 60 s annealing step at 56°C, and a 125 s elongation step at 72°C. […] The PCR amplicons were then electrophoresed in 1% agarose gels containing 40 mM Tris/20 mM glacial acetic acid/2 mM EDTA buffer, and the relative densities of the PCR products were quantitated by use of Image Gauge software (Fujifilm, Tokyo, Japan). […]

- mRNA levels of CYP1A1, CYP1A2, CYP2C6, CYP2C11, and CYP3A2: induced
SMILES: C=C1CC[C@@H]2[C@](C)(CO)[C@H](O)CC[C@@]2(C)[C@@H]1C/C=C1/C(=O)OC[C@H]1O [andrographolide, Andrographolide]
